Assay results published in ChEMBL document CHEMBL5032522, “N-2-(phenylamino) benzamide derivatives as novel anti-glioblastoma agents: Synthesis and biological evaluation” (Eur J Med Chem, 2021).
pIC50: −log10 of the molar value. The source made the active and inactive calls. The rule behind the calls is not given here.

Legend:
U-87 MG [1] = experiment: Antiproliferative activity against human U-87 MG cells assessed as inhibition of cell growth measured after 72 hrs by CCK-8 assay; assay type: functional, cell-based, U-87MG ATCC
U-251 [2] = experiment: Antiproliferative activity against human U-251 cells assessed as inhibition of cell growth measured after 72 hrs by CCK-8 assay; assay type: functional, cell-based; details: U-251, 72 h
C6 = experiment: Antiproliferative activity against rat C6 cells assessed as inhibition of cell growth measured after 72 hrs by CCK-8 assay; assay type: functional, cell-based; details: C6, 72 h
[3] = target: T1, Prostaglandin G/H synthase 2 (Homo sapiens, UniProt P35354); experiment: Inhibition of human recombinant COX-2 using arachidonic acid as substrate preincubated 10 mins followed by substrate addition and measured after 2 mins by ELISA
T1 sequence (P35354 whole entry): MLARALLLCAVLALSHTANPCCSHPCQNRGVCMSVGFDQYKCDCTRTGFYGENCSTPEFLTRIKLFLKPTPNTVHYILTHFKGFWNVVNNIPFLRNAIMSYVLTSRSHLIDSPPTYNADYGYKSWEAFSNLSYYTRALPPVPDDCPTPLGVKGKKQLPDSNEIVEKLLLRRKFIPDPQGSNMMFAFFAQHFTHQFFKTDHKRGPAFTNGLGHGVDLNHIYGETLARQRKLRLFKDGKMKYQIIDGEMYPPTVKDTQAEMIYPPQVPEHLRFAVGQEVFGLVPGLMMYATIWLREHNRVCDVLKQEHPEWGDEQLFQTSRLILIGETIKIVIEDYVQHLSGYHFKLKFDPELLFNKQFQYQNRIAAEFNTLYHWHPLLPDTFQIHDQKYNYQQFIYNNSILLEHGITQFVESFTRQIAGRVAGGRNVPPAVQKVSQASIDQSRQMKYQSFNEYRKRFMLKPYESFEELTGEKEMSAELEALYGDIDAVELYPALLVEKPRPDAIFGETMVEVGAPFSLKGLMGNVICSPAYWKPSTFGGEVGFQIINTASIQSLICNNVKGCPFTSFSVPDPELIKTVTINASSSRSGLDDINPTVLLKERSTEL

DNA topoisomerase 1 = target: T2, DNA topoisomerase 1 (Homo sapiens, UniProt P11387); experiment: Inhibition of human topoisomerase I using DNA pBR322 as substrate assessed as DNA relaxation incubated for 45 mins by ethidium bromide staining based agarose gel electrophoresis
T2 sequence (P11387 whole entry): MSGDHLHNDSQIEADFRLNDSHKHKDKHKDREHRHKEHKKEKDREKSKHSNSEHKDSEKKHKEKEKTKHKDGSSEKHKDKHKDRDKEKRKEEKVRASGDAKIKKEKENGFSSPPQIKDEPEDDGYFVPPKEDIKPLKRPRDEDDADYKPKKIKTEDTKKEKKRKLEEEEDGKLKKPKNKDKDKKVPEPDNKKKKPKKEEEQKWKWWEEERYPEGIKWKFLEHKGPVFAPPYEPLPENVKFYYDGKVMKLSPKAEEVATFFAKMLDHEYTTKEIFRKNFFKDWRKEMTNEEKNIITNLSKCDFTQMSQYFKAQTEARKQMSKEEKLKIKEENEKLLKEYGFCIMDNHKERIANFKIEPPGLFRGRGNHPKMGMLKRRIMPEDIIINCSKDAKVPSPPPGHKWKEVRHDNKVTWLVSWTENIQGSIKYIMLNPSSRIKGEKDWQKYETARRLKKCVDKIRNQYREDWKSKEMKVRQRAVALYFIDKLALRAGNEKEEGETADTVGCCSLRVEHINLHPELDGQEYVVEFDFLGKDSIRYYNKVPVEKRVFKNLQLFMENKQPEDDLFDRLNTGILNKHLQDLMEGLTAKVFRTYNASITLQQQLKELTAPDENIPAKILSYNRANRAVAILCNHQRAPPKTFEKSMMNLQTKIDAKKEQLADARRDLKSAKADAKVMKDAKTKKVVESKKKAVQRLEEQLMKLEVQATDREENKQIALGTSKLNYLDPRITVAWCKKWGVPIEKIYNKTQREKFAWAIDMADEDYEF

[4] = target: T3, DNA topoisomerase 1 (Homo sapiens) (UniProt P11387); experiment: Inhibition of human topoisomerase I using DNA pBR322 as substrate assessed as DNA intercalation at 100 uM incubated for 30 mins by ethidium bromide staining based agarose gel electrophoresis method
T3 sequence (whole entry): T2 sequence (P11387 whole entry)

[5] = target: T4, Prostaglandin G/H synthase 2 (Rattus norvegicus) (UniProt P35355); experiment: In vivo inhibition of COX2 in ip dosed orthotopic Sprague-Dawley rat model inoculated with C6 cells assessed as reduction in PGE2 production by ELISA; assay type: functional, organism-based
T4 sequence (whole entry): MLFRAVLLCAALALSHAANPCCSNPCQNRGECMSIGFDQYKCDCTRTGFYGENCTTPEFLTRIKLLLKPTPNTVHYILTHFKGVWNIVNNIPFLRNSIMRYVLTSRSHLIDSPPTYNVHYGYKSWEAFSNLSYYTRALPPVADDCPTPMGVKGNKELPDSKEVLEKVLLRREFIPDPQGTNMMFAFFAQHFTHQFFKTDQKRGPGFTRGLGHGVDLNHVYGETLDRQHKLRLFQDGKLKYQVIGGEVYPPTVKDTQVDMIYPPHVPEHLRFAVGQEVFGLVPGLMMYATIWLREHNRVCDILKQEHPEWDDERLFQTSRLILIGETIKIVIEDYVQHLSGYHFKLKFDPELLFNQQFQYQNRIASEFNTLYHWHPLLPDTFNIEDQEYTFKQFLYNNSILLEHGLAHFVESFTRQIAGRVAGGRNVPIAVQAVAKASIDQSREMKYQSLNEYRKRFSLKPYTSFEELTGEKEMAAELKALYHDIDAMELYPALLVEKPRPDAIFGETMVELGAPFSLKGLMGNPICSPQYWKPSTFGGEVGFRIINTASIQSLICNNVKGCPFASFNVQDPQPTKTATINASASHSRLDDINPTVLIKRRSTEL

[6] = Toxicity in Sprague-Dawley rat inoculated with C6 cells assessed as reduction in body weight at 50 mg/kg, ip bid administered for 14 days; assay type: organism-based; details: in vivo, 336 h, time 14 day
U-251 [7] = experiment: Inhibition of cell invasion in human U-251 cells incubated for 24 hrs by crystal violet staining based light microscopic analysis; assay type: functional
U-87 MG [8] = experiment: Inhibition of cell invasion in human U-87 MG cells incubated for 24 hrs by crystal violet staining based light microscopic analysis; assay type: functional; details: U-87MG ATCC
U-87 MG [9] = experiment: Inhibition of cell migration in human U-87 MG cells incubated for 24 hrs by crystal violet staining based light microscopic analysis; assay type: functional; details: U-87MG ATCC
U-251 [10] = experiment: Inhibition of cell migration in human U-251 cells incubated for 24 hrs by crystal violet staining based light microscopic analysis; assay type: functional

| Structure (SMILES) | pIC50 (U-87 MG [1]) | pIC50 (U-251 [2]) | pIC50 (C6) | pIC50 [3] | pIC50 (DNA topoisomerase 1) | inhibition [4] | inhibition [5] | Activity [6] | inhibition (U-251 [7]) | inhibition (U-87 MG [8]) | inhibition (U-87 MG [9]) | inhibition (U-251 [10]) |
| --- | --- | --- | --- | --- | --- | --- | --- | --- | --- | --- | --- | --- |
| COc1cc(NC(=O)c2ccccc2Nc2cccc(C(F)(F)F)c2)cc(OC)c1OC | 4.28 | 4.29 | 4.12 | < 3.82 | < 3.90 | – | – | – | – | – | – | – |
| CC[C@@]1(O)C(=O)OCc2c1cc1n(c2=O)Cc2cc3c(CN(C)C)c(O)ccc3nc2-1 [TOPOTECAN] | 7.22 | 6.43 | 5.24 | – | – | – | – | – | – | – | – | – |
| Cc1c(Cl)cccc1Nc1ccccc1C(=O)O [TOLFENAMIC ACID] | < 4.00 | < 4.00 | < 4.00 | – | – | – | – | – | – | – | – | – |
| COc1ccc(NC(=O)c2ccccc2NCc2ccccc2)cc1 | < 3.70 | < 3.70 | < 3.70 | < 3.82 | < 3.90 | – | – | – | – | – | – | – |
| COc1ccc(NC(=O)c2ccccc2Nc2cccc(Cl)c2C)c(OC)c1 | < 3.70 | < 3.70 | < 3.70 | 3.94 | 4.15 | – | – | – | – | – | – | – |
| COc1ccc(NC(=O)c2ccccc2Nc2cccc(C(F)(F)F)c2)cc1OC | 4.14 | 4.06 | 4.44 | < 3.82 | < 3.90 | – | – | – | – | – | – | – |
| COc1ccc(NC(=O)c2ccccc2Nc2cccc(C)c2C)cc1 | 4.13 | 3.86 | < 3.70 | < 3.82 | < 3.90 | – | – | – | – | – | – | – |
| COc1ccc(NC(=O)c2ccccc2Nc2cccc(C(F)(F)F)c2)cc1 | 3.85 | < 3.70 | 4.00 | < 3.82 | < 3.90 | – | – | – | – | – | – | – |
| COc1ccc(CCCNC(=O)c2ccccc2Nc2ccccc2)cc1 | < 3.70 | < 3.70 | < 3.70 | < 3.82 | < 3.90 | – | – | – | – | – | – | – |
| COc1cc(NS(C)(=O)=O)ccc1Nc1c2ccccc2nc2ccccc12 | – | – | – | – | – | Active | – | – | – | – | – | – |
| COc1ccc(NC(=O)c2ccccc2Nc2ccccc2)cc1 | < 3.70 | 3.73 | < 3.70 | < 3.82 | < 3.90 | – | – | – | – | – | – | – |
| COc1ccc(NC(=O)c2ccccc2Nc2cccc(C)c2C)cc1OC | 3.84 | < 3.70 | 3.77 | 4.32 | 4.07 | – | – | – | – | – | – | – |
| COc1cc(NC(=O)c2ccccc2Nc2cccc(Cl)c2C)cc(OC)c1OC | 4.26 | 3.75 | < 3.70 | 3.93 | 4.29 | – | – | – | – | – | – | – |
| CSc1ccc(NC(=O)c2ccccc2Nc2cccc(C(F)(F)F)c2)cc1 | < 3.70 | 4.03 | < 3.70 | < 3.82 | < 3.90 | – | – | – | – | – | – | – |
| COc1ccc(CCNC(=O)c2ccccc2Nc2ccccc2)cc1 | < 3.70 | < 3.70 | 3.89 | < 3.82 | 3.97 | – | – | – | – | – | – | – |
| COc1ccc(NC(=O)c2cccnc2Nc2cccc(C(F)(F)F)c2)cc1 | < 3.70 | < 3.70 | < 3.70 | < 3.82 | 3.97 | – | – | – | – | – | – | – |
| Cn1nnc2c(C(N)=O)ncn2c1=O [TEMOZOLOMIDE] | – | – | – | – | – | – | inactive | Toxic | – | – | – | – |
| COc1ccc(NC(=O)c2cccnc2Nc2cccc(Cl)c2C)cc1 | 3.73 | < 3.70 | < 3.70 | < 3.82 | 4.21 | – | – | – | – | – | – | – |
| c1ccc(-c2cc(-c3ccccc3)c3ncccc3n2)cc1 | < 3.70 | < 3.70 | 3.99 | < 3.82 | < 3.90 | inactive | – | – | Dose-Dependent Effect | Dose-Dependent Effect | Dose-Dependent Effect | Dose-Dependent Effect |
| COc1ccc(NC(=O)c2ccccc2Nc2cccc(Cl)c2C)cc1OC | 4.00 | < 3.70 | 4.36 | 4.03 | < 3.90 | – | – | – | – | – | – | – |
| O=C(Nc1ccc2c(c1)OCO2)c1ccccc1Nc1cccc(C(F)(F)F)c1 | 4.58 | 4.89 | 4.81 | 3.98 | 3.98 | – | – | – | – | – | – | – |
| COc1ccc(NC(=O)c2ccccc2Nc2cccc(Cl)c2)cc1 | < 3.70 | 3.78 | < 3.70 | < 3.82 | 4.07 | – | – | – | – | – | – | – |
| COc1ccc(CNC(=O)c2ccccc2Nc2ccccc2)cc1 | < 3.70 | < 3.70 | < 3.70 | 4.76 | < 3.90 | – | – | – | – | – | – | – |
